Measured values reported in patent US20250099485A1, “COMPOSITIONS FOR PROMOTING HAIR GROWTH” (ESTETRA SRL, priority 2021, published 2025).

Key:
[1] = tested on: Normal Human Dermal Fibroblasts (NHDFs); assay: Colonization of acellular area (IBIDI gap closure), fibroblasts; type: cell-based; conditions: for NHDF Migration (+MMC) (colonization of acellular area vs ethanol control): presence of mitomycin C, 6 h and 24 h contact, cell gives time of significant effect
Experimental: The study consists in an in vitro assay aiming to evaluate the properties of E4 and E2 at 4 concentrations each on keratinocytes and fibroblasts. In this assay, the measurement of the colonization of a standard acellular surface generated from a confluent monolayer of cells using a dedicated culture device (IBIDI chamber) is performed. The assay is performed in absence and in presence of a proliferation inhibitor to focus on cell proliferation and migration or on migration only, respectively.
Normal Human foreskin-derived Dermal Fibroblast (NHDFs, ATCC) cells were grown in phenol-free Dulbecco's Modified Eagle Medium (DMEM, ThermoFisher Scientific) supplemented with 10% of Foetal Bovine Serum (FBS, ThermoFisher Scientific), L-glutamine and antibiotics. The cells were maintained in a humidified incubator at 37° C. with a 5% CO2 atmosphere.
Cells were plated in 2-well silicone inserts with a defined cell free gap (IBIDI chambers; IBIDI GmbH, 80209) that was previously inserted on 12-well culture plates. This culture device allows to create a standardized 500 μm±100 μm cell free gap for monitoring cell colonization. 24 h after seeding, when the culture reached high confluency, cells in the insert were treated, or not, with mitomycin C (MMC) at 10 μg/ml during 2 h. After these 2 hours, the insert was removed, and cells were treated with E2 or E4 in presence or not of MMC for additional 2 h. Then, if appropriate, the culture medium was removed and cells were treated with E2 or E4 for 22 h, in absence of MMC.
For the assay, keratinocytes were plated in Epilife medium without HKGS and all the treatments were performed in this medium. Fibroblasts were plated in DMEM medium containing only 2.5% of FBS and the treatments were performed in absence of FBS.
E2 and E4 were applied at 4 concentrations each (10^−7M, 10^−8M, 10^−9M, 10^−10M). In parallel, cells were treated with a positive control (HKGS 1% for human keratinocytes and PDGF-BB at 10 ng/ml for human fibroblasts).
To monitor cell colonization and to evaluate the gap closure rate, pictures of the gap were taken after different times: at time 0 h, corresponding to the beginning of the treatment with E2 or E4 and to the removal of the culture insert, at time 6 h and at time 24 h (corresponding to the end of the treatments with E2 or E4). Pictures were taken with a microscope Zeiss (Axiover 25-10× objective) and with a camera Invenio2EIII (DeltaPix—Lux-Optic). The colonized areas were quantified from the pictures by the use of the WimAsis platform—WimScratch software. For each insert, 3 pictures were taken at each time. As each condition was performed in triplicates, it means a total of 9 pictures per condition and per time point of acquisition

[2] = tested on: human hair follicles (HF); assay: Hair follicle organ culture: LDH release into the medium; type: cell-based; conditions: all tested concentrations (300 nM, 3 μM, 30 μM)
Experimental: (§1) 12-44 full-length frontotemporal hair follicles (HF) were obtained from four human female donors >50 years old. Donors were caucasian female subjects […], respectively (Donor 1: 12 temporal anagen HFs; Donor 2: 29; Donor 3: 44; Donor 4: 32). After microdissection from skin as described (Edelkamp et al., Methods Mol Biol, 2020, 2154:105-119; and Langan et al., Exp Dermatol, 2015, December; 24(12):903-1), HFs were placed in adequate culture medium and allowed a 24 h rest period to allow them to recover from the trauma of microdissection. Test substance (either vehicle (0.3% EtOH) or E4 at concentrations of 30 μM, 3 μM or 300 nM) was added to the medium at the end of the 24 h. Total culturing time was 5-7 days depending on the studied parameters and the experimental question. The experimental design for the hair follicle organ culture experiment is depicted in FIG. 12. Longer term culture experiments may be used to analyze the capacity to delay the onset of catagen.
LDH is released from the cytoplasm of damaged cells into the culture medium. Therefore, the cytotoxicity of agents can be estimated based on the activity of LDH present in the culture medium using a colorimetric assay (Cytotoxicity Detection Kit [LDH], Roche) as described (Gherardini et al Int J Cosmet Sci, 2019, April; 41(2):164-182). […]

[3] = tested on: alkaline phosphatase in dermal papilla (DP); assay: Hair follicle organ culture: alkaline phosphatase activity, DP inductivity; type: cell-based, human; conditions: all tested concentrations, vs vehicle
Experimental: as §1
Alkaline phosphatase is an indicator of DP inductivity (Yang, J Dermatol Sci, 2010, January; 57(1):2-11). Alkaline phosphatase in situ activity was measured in the DP.

[4] = female, Lister Hooded, rat, in vivo, po, 15 mg/kg, 0.5 h
Experimental: Tissue distribution was determined in female rats (partially pigmented and non-pigmented) using [^14C]-estetrol.
A group of six female Lister Hooded rats each received a single oral dose of [^14C]-estetrol. At each selected time (see below) one animal was killed (by overdose of CO2) followed by immediate snap freezing in hexane/solid CO2. The carcasses were retained for examination of the tissue distribution of radioactivity using the technique of quantitative whole body autoradiography (QWBA).
Times for analysis were: (0.5, 8, and 24 hours, 7, 14 and 35 days).
Frozen carcasses were subjected to whole-body autoradiography.
Where concentrations are reported, radioactivity was assumed to be associated with [^14C]-estetrol or any metabolic products derived from [^14C]-estetrol. The specific activities of the dosed test compounds were used for the calculation of concentrations in all cases. Recoveries of radioactivity are reported as percentage of administered radioactivity (% dose). Radioactivity concentrations are also reported as μg equivalents/g.

C[C@]12CC[C@@H]3c4ccc(O)cc4CC[C@H]3[C@@H]1[C@@H](O)[C@@H](O)[C@@H]2O [E4, 1,3,5 (10)-estratrien-3,15alpha,16alpha,17beta-tetrol]
NHDF Migration (+MMC) (colonization of acellular area vs ethanol control) ([1]; 10^−7M): significantly increase the colonization of the acellular area
NHDF Migration (+MMC) (colonization of acellular area vs ethanol control) ([1]; 10^−8M): significantly increase the colonization of the acellular area
NHDF colonization of the cell-free area ([1]; absence of MMC, all four concentrations): not able to significantly increase
HF cytotoxicity (LDH release into the medium) [2]: did not induce HF cytotoxicity
alkaline phosphatase activity in DP cells [3]: tendentially increased
Total amount of radioactivity in tissue, Skin (non-pigmented) [4]: 1.1 % dose administered/tissue
Total amount of radioactivity in tissue, Skin (pigmented) [4]: 1.7 % dose administered/tissue
